Here are results for 4 compounds from patent publication US9695118B2, “Benzamide derivative” (Chugai Seiyaku Kabushiki Kaisha, priority 2012, dated 2017).

The target in one test is DDR1 (Homo sapiens (Human), UniProt Q08345). Put plainly: biochemical.
Test [1] deals with human endometrial cancer cell line MFE-280. Description: Antitumor effect in cancer-bearing mice with subcutaneously transplanted MFE-280. The conditions noted are these: Dose 200 mg/kg, orally once daily; MFE-280 in BALB/c nude mice; 11th day after start of administration. It counts as in vivo. As for the experimental part:
3. Measurement of Antitumor Effect
The antitumor effect was measured for representative examples of the compounds of the present invention.
The antitumor effect was measured using cancer-bearing mice in which the human endometrial cancer cell line MFE-280 (manufactured by DSMZ) was subcutaneously transplanted to the flank of BALB/c nude mice (manufactured by Charles River Laboratories Japan, Inc.).
About 1×10^7 MFE-280 cells were subcutaneously transplanted to the flank of the purchased nude mice after a one-week quarantine period. The tumor size was measured with calipers, and the tumor volume was calculated (tumor volume=length×breadth^2/2 (mm^3)). The mice were subjected to the experiment when the tumor volume was about 200 mm^3.
The test compound was suspended in the administration solution, and 0.4 mL of the suspension was orally administered once daily. The antitumor effect was calculated as inhibition of tumor growth by comparing the tumor growth between the drug-treated group and the administration solution-administered control group on the 11th day after the start of administration.
Tumor volume growth inhibition (TGI)=(1−tumor volume growth in drug-treated group/tumor volume growth in control group)×100(%)

Sequence of DDR1 (Q08345 19-913): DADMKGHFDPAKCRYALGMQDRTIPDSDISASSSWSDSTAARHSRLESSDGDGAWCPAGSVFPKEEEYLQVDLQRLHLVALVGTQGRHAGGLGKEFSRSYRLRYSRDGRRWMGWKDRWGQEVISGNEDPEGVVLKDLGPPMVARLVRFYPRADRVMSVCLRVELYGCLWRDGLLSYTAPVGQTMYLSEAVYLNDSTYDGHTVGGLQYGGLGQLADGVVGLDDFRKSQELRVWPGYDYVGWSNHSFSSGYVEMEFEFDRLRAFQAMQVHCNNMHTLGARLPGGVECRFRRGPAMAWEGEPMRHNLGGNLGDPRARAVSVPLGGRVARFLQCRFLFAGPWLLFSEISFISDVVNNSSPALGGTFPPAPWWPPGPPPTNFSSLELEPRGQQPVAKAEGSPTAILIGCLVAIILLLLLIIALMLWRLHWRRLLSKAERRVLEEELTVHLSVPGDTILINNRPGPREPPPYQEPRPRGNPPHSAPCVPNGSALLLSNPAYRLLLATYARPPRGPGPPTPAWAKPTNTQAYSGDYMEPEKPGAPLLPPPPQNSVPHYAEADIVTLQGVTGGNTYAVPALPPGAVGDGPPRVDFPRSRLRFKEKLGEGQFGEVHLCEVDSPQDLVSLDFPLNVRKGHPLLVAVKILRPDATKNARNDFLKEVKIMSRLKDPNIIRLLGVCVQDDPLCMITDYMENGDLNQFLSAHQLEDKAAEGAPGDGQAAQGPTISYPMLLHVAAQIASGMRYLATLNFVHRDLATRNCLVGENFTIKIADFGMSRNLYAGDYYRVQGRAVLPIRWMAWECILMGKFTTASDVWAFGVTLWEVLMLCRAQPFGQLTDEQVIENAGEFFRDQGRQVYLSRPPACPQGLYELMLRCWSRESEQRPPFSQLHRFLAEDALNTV
Description for DDR1: Measurement of DDR1 Binding Activity
DDR1 binding activity was measured by the LanthaScreen (Registered trademark) Eu Kinase Binding Assay (manufactured by Life Technologies Corporation). […] After reacting at room temperature for one hour, the fluorescence resonance energy transfer was measured.

One may read the IC50 as the concentration that gives 50% inhibition. `CCS(=O)(=O)c1ccc(Cl)cc1CNC(=O)c1cc(Br)cc(OC(F)(F)F)c1` [Compound A-10, 3-bromo-N-(5-chloro-2-ethanesulfonyl-benzyl)-5-trifluoromethoxy-benzamide] showed a concentration for half-maximal inhibition (IC50) against DDR1 of 50 nM.
As to `CCS(=O)(=O)c1ccc(Cl)cc1CNC(=O)c1ccc(CN2CCN(C)CC2)c(C(F)(F)F)c1` [Compound B-2, N-(5-Chloro-2-ethanesulfonyl-benzyl)-4-(4-methyl-piperazin-1-ylmethyl)-3-trifluoromethyl-benzamide], the “Antitumor effect TGI after 11 days passed (%)” value in test [1] was 61%.
`C#CCN(CC#C)[C@H]1CCCN(Cc2c(Cl)cc(C(=O)NCc3cc(Cl)ccc3S(=O)(=O)CC)cc2C(F)(F)F)C1` [DD-23, 4-[[(3S)-3-[Bis(prop-2-ynyl)amino]piperidin-1-yl]methyl]-3-chloro-N-[(5-chloro-2-ethylsulfonylphenyl)methyl]-5-(trifluoromethyl)benzamide] yielded a 50% inhibitory concentration (IC50) against DDR1 of 800 nM.
On the same count and under the same terms, under `CCS(=O)(=O)c1ccc(Cl)cc1CNC(=O)c1cc(Cl)c(CN2CCC([N+](C)(C)[O-])CC2)c(C(F)(F)F)c1` [Compound N-24] stands 76 nM.
